Read-outs that look alike come from different tables or passages of the source.
Legend:
[1] = cited from earlier work
Male DBA/2J mice [2] = experiment: Prepulse inhibition (PPI) model, Compound A alone; assay type: in vivo, mouse; conditions: Compound A alone at 0.01, 0.1 and 1.0 mg/kg i.p., 30 min before testing; FIG. 1
Description: Dysfunctions of sensory gating and information processing have been putatively associated with clinical features such as perpetual aberrations, hallucinations and distraction and been considered as potential precursors of sensory overload, cognitive fragmentation and disorganization. Among the physiological measures, one approach has involved the startle reflex with the prepulse inhibition (PPI) paradigm. […] PPI refers to a reduction in the acoustic startle reflex to a loud noise when the loud noise is preceded by a weak auditory stimulus. At short lead intervals, this has the effect of markedly reducing or gating the amplitude of the startle response and increasing its latency. Disruption of PPI occurs with agonists of dopamine and serotonin, and with glutamate/N-methyl D aspartate (NMDA) receptor antagonists, or can be induced by genetic (e.g., DBA2 mouse strain) and experimental manipulations (e.g., rearing rats in isolation, neurotoxic lesions, or other methods). […] (Olivier B., et al., Psychopharmacology (2001) vol. 156:284-290; Ouagazzal A-M., Psychopharmacology (2001) vol. 156:273-283; Simosky J. K., Psychopharmacology (2003) vol. 165:386-396). […]
Animals: Male DBA/2J mice (Jackson Labs AX9 facility, Bar Harbor, Me., USA) at age 6-8 weeks old were used. […] Experimental Procedure: Startle response and PPI were measured using startle chambers from Hamilton Kinder (Poway, Calif., USA). […]

Male DBA/2J mice [3] = experiment: Prepulse inhibition (PPI) model, Compound A on a subefficacious dose of risperidone; assay type: in vivo, mouse; conditions: FIG. 2
Protocol: Animals: Male DBA/2J mice (Jackson Labs AX9 facility, Bar Harbor, Me., USA) at age 6-8 weeks old were used. They were housed under standard facility conditions in groups of eight on a 12 h light/dark cycle (lights on at 0600 h) with ad libitum access to food and water. Chemicals: 2-{4′-[(3aR,6aR)-5-Methylhexahydropyrrolo[3,4-b]pyrrol-1(2H)-yl]-1,1′-biphenyl-4-yl}pyridazin-3(2H)-one was prepared at Abbott Laboratories; risperidone (3-[2-[4-(6-fluoro-1,2-benzisoxazol-3-yl)-1-piperidinyl]ethyl]-6,7,8,9-tetrahydro-2-methyl-4H-pyridol[1,2-a]pyrimidin-4-one, MW 410.5) was obtained from ICN Biomedicals Inc. (Aurora, Ohio, USA). […] Experimental Procedure: Startle response and PPI were measured using startle chambers from Hamilton Kinder (Poway, Calif., USA). […] In the startle alone trials, the amount of PPI was calculated as a percentage score for each acoustic prepulse trial type using (typically) the formula: […]. Statistics: Data were analyzed using a one-way ANOVA. All post hoc significance was determined using Dunnett's multiple comparison test (p<0.05 was regarded as significance). […]
Statistics: Data were analyzed using a one-way ANOVA. All post hoc significance was determined using Dunnett's multiple comparison test (p<0.05 was regarded as significance).

Male Sprague Dawley rats = experiment: Catalepsy (bar test), Compound A in combination with risperidone; assay type: in vivo, rat; conditions: Compound A 0.1 or 1.0 mg/kg i.p. 10 min prior to risperidone 2.5 mg/kg i.p.; total catalepsy over 60-240 min; FIG. 3
Protocol: Animals: Male Sprague Dawley rats (CRL: CD (SD), Charles River Laboratories, Omaha, Nebr., USA) weighing 300-325 g were used for the experiment. They were housed under standard conditions in groups of 4 rats on a 12 h light/dark cycle (lights on at 0600 h) with ad libitum access to food and water. Preparation of Compounds: 2-{4′-[(3aR,6aR)-5-Methylhexahydropyrrolo[3,4-b]pyrrol-1(2H)-yl]-1,1′-biphenyl-4-yl}pyridazin-3(2H)-one (Compound A) and risperidone were solubilized as described above, and were administered in solution in a volume of 1.0 ml/kg body weight. Experimental Procedure: Rats were handled and habituated to the testing room before starting. […] The degree of catalepsy was measured by gently placing both forepaws over a metal bar (1.1 cm. diameter suspended 8 cm. above the table top). The time in seconds until the rat took both paws off the bar was recorded, with a maximum cut-off of 300 seconds. […] At least 5 trials were attempted on each rat with 5 seconds used as a low-end cut-off for catalepsy (time scored as zero). For catalepsy times between 5-15 seconds, the highest time of 5 trials was recorded. Alternately, any catalepsy trial time that was greater than 15 seconds (up to 300 seconds) was recorded. Statistics: Data for the 4 times points were summed across the session, and the total catalepsy scores were analyzed using a one-way analysis of variance (ANOVA). […]

[4] = clinical use, Table 1, hyperprolactinaemia
[5] = clinical use, Table 1, sexual dysfunction

## O=C1CCc2ccc(OCCCCN3CCN(c4cccc(Cl)c4Cl)CC3)cc2N1 [Arpiprazole]
[1]; Table 2
  Dose of Increased Side Effect Risk (somnolence), in words: dose dependent
[1]; clinical use, Table 1
  Other Dose Related Side Effects: somnolence

## CN1CCN(C2=Nc3cc(Cl)ccc3Nc3ccccc32)CC1 [Clozapine, 8-chloro-11-(4-methyl-1-piperazinyl)-5H-dibenzo[b,e][1,4]diazepine]
[1]; Table 2
  Dose of Increased Side Effect Risk (low risk for seizures): <300 mg/day
  Dose of Increased Side Effect Risk (moderate risk for seizures): 300 to 599 mg/day

## CN1C[C@H]2CCN(c3ccc(-c4ccc(-n5ncccc5=O)cc4)cc3)[C@H]2C1 [Compound A, 2-{4′-[(3aR,6aR)-5-methylhexahydropyrrolo[3,4-b]pyrrol-1(2H)-yl]-1,1′-biphenyl-4-yl}pyridazin-3(2H)-one]
Male DBA/2J mice [2]
  PPI responding: did not significantly alter PPI responding
Male DBA/2J mice [3]; 0.1 mg/kg Compound A + 0.1 mg/kg risperidone, comparable to 1.0 mg/kg risperidone
  efficacy of risperidone (0.1 mg/kg) in PPI in combination with 0.1 mg/kg Compound A: attained maximal efficacy
Male DBA/2J mice [3]; Compound A 0.01, 0.1 or 1.0 mg/kg i.p. 35 min, risperidone 0.1 mg/kg 25 min prior to testing
  efficacy of risperidone (0.1 mg/kg) in PPI in the presence of Compound A: more efficacious
Male Sprague Dawley rats
  cataleptic behavior of risperidone when administered in combination: did not significantly alter cataleptic behavior

## O=C(CCCN1CCC(O)(c2ccc(Cl)cc2)CC1)c1ccc(F)cc1 [Haloperidol, 4-(4-chlorophenyl)-1-[4-(4-fluorophenyl)-4-oxobutyl]-4 piperidinyl]
[1]; Table 2, risk for EPS
  Dose of Increased Side Effect Risk: ~3 mg
[1]; [4]
  Other Dose Related Side Effects: hyper-
[1]; [5]
  Other Dose Related Side Effects: sexual

## Cc1nc2n(c(=O)c1CCN1CCC(c3noc4cc(F)ccc34)CC1)CCCC2 [Risperidone, 3-[2-[4-(6-fluoro-1,2-benzisoxazol-3-yl)piperidino]ethyl]-2-methyl-6,7,8,9-tetrahydro-4H-pyrido-[1,2-a]pyrimidin-4-one]
[1]; Table 2
  Dose of Increased Side Effect Risk (EPS risk): ≧6 mg/day
[1]; [4]
  Other Dose Related Side Effects: hyper-
[1]; [5]
  Other Dose Related Side Effects: sexual

## O=C1Cc2cc(CCN3CCN(c4nsc5ccccc45)CC3)c(Cl)cc2N1 [Ziprasidone, 5-[2-[4-(1,2-benzoisothiazol-3-yl)-1-piperazinyl]ethyl]-6-chloro-1,3-dihydro-2H-indol-2-one]
[1]; Table 2
  Dose of Increased Side Effect Risk (EPS risk): >80 mg/day
[1]; clinical use, Table 1
  EPS risk: dose of augmented risk: risk >80 mg/kg/day
